Results as given in patent US12605453B2, “CP2C-targeting peptide-based anticancer agent” (Industry-University Cooperation Foundation Hanyang …, priority 2019, dated 2026).
Where a SMILES comes first, the peptide text is derived from it.

Key:
[1] = Preliminary repeated toxicity test of ACP52C; type: in vivo, mouse; details: 100 mg/kg and 1000 mg/kg repeatedly administered twice
Experimental: A repeated toxicity test for the in vivo administration of ACP52CGK was conducted using female and male mice. […] As a full-scale experiment, after intravenous infusion of ACP52CGK for 28 days at 3-day intervals into the solvent group and high-dose group (100 mg/Kg) of 6 males and females each, the weight change, drinking water intake, and main histological analysis of organs, organ weight, hematological tests and blood biochemical tests were analyzed.

[2] = ELISA for antibody formation in sera of injected rabbits (immunogenicity); details: rabbit, in vivo
From the text: To verify this, immunogenicity of ACP52CG and ACP52CK was directly tested in the process of deriving the final new drug candidate. Since the final candidate material might be a C-16 palmitoyl acid-conjugated ACP52C peptide, which is not different with ACP52CG and ACP52CK in terms of chemical composition, it was decided to analyze whether antibodies were formed on ACP52CG and ACP52CK. […] Therefore, it was concluded that the final candidate material (ACP52CGK) would also not show immunogenicity in the human body (FIG. 21).

[3] = tested on: A549 cell line in which MDM2 overexpression is chronically induced; experiment: MTT assay in A549 cell line with chronically induced MDM2 overexpression; type: cell-based; details: doxycycline for 3 weeks, MDM2p90 overexpressed
From the text: (§1) Since MDM2p60 is known to be a protein in which the C-terminal region of MDM2p90 comprising sites (S386, S395, and S407) phosphorylated by ATM is deleted, it was speculated that the MDM2 degradation would not be properly regulated by ACP52C treatment (FIG. 29, FIGS. 30a to 30c).

[4] = tested on: lung cancer cell lines (A549, PC9, KCL22); experiment: Immunoblot of CP2c pathway proteins in lung cancer cell lines treated with ACP52C; type: cell-based
From the text: as §1

[5] = Degradation in mouse blood samples after tail vein injection, HPLC; type: in vivo
Experimental: (§2) The ACP52C half-life in the solution containing serum was analyzed by HPLC (model: UHPLC DIONEX Ultimate 3000; Flow=1.000 ml/min) after incubation of ACP52C in the solution containing 10% serum for various times and then removing serum proteins with Centricon (Mw10,000) before HPLC analysis. […] Meanwhile, after injecting ACP52C into the mouse via tail vein, blood samples were extracted over time and the degree of ACP52C degradation in the blood samples was analyzed by HPLC.

[6] = tested on: CHK1/2, CDC25c, CDK1, cyclin B, caspases; experiment: Expression of cell cycle and apoptosis marker proteins after ACP52C treatment; type: cell-based
[7] = tested on: various cancer cell lines; experiment: Anticancer effect of ACP52C in various carcinomas (GI50, FIG. 1); type: cell-based
From the text: FIG. 1 illustrates GI50 values dependent upon ACP52C treatment in various cancer cell lines.
The selected peptide binds to CP2c and inhibits the formation of a transcription factor complex including CP2c (CP2c homotetramer and CP2c/CP2b/PIAS1 heterohexamer), thereby indirectly interfering with DNA binding of CP2c.

[8] = tested on: cell cycle (G2/M, subG1); experiment: FACS cell cycle analysis after cell cycle synchronization; type: cell-based
From the text: The growth inhibitory and cell death-inducing efficacy of ACP52C was confirmed by FACS analysis by treating cells with ACPS2C after synchronizing the cell cycle to the G1/S phase through a double thymidine block method.

[9] = mouse, in vivo
Experimental: To analyze the in vivo half-life of ACP52CGK, Cy5-labeled ACP52CGK was injected into the tail vein of the mouse, and then the fluorescence intensity remaining in the mouse body was measured over time by live imaging process.

[10] = Half-life in solution containing 10% serum by HPLC; type: in vitro ADME; details: HPLC after removing serum proteins
Experimental: as §2

[11] = ACP52C-induced G2/M phase arrest

Question: Which results are given for CC(=O)N[C@@H](CC(N)=O)C(=O)N[C@@H](Cc1ccc(O)cc1)C(=O)N1CCC[C@H]1C(=O)N[C@@H](CCC(N)=O)C(=O)N[C@@H](CCCNC(=N)N)C(=O)N1CCC[C@H]1C(=O)N[C@@H](CS)C(=O)N[C@@H](CCCNC(=N)N)C(=O)NCC(=O)N[C@@H](CC(=O)O)C(=O)N[C@@H](CCCCN)C(=O)NCC(=O)N1CCC[C@H]1C(=O)N[C@@H](CC(=O)O)C(=O)N[C@@H](CS)C(N)=O [ACP52C] (Ac-NYPQRPCRGDKGPDC-NH2)?
Answer: liver toxicity or adverse effect on major organs [1]: any liver toxicity or adverse effect on major organs was not observed; survival [1]: all the mice survived; immune response of sera from rabbits injected with ACP52CG and ACP52CK three times (ELISA) [2]: did not induce immune responses; induction of cell death [3]: cell death was induced from the second week; expression of MDM2 (p90 and p60) [4]: no decrease in the expression; expression of YY1 [4]: decreased; expression of p53, p63 and p73 [4]: did not show any change; half-life in mouse blood [5]: about 2 hours; cell death induction mechanism [6]: apoptosis via activation of caspases; expression of CDC25c, CDK1, and cyclin B proteins [6, 11]: decreased expression of CDC25c, CDK1, and cyclin B proteins; expression of CHK1/2 protein [6, 11]: increased expression of CHK1/2 protein; growth inhibition and cell death efficacy [7]: cancer cell-specific growth inhibition and cell death efficacy; cell cycle effect (FACS) ([8]; cell line synchronized to G2/M phase with thymidine/nocodazole): the cell cycle was arrested at the subG1 phase and cell death was induced; cell cycle effect (FACS) ([8]; cells synchronized to G1/S phase by double thymidine block): cell cycle arrest at the G2/M phase; presence in cancer tissues after injection [9]: observed in cancer tissues even 5 days after injection; degradation in solution containing 10% serum [10]: not degraded at all until 24 hours
